Experimental data taken from ChEMBL document CHEMBL1130562, “Potent and selective inhibitors of the Abl-kinase: phenylamino-pyrimidine (PAP) derivatives” (Bioorg Med Chem Lett, 1997).

Tested on: not listed separately
Assay: Dissociation constant pKa was determined
Assay type: physicochemical

Compound | pKa
O=C(Nc1cccc(Nc2nccc(-c3cccnc3)n2)c1)c1cccnc1 | 2.56

Biological target: Platelet-derived growth factor receptor (Homo sapiens, UniProt P09619+P16234)
Assay: Inhibition of the platelet-derived growth factor receptor.

Compound | IC50 [µM]
c1cncc(-c2ccnc(Nc3cccc(-n4ccnc4)c3)n2)c1 | 18
O=C(Nc1cccc(Nc2nccc(-c3cccnc3)n2)c1)c1ccccn1 | > 100
NCCCn1ccc2c(-c3ccnc(Nc4cccc(OC(F)(F)C(F)F)c4)n3)cccc21 | 5
COc1ccccc1C(=O)Nc1cccc(Nc2nccc(-c3cccnc3)n2)c1 | 1
Clc1cccc(Nc2nccc(-c3cccnc3)n2)c1 | > 10
O=C(Nc1cccc(Nc2nccc(-c3cccnc3)n2)c1)c1cccnc1 | 50
O=C(Nc1cccc(Nc2nccc(-c3cccnc3)n2)c1)c1ccc(F)cc1 | 3
FC(F)C(F)(F)Oc1cccc(Nc2nccc(-c3c[nH]c4ccccc34)n2)c1 | > 10
O=C(Nc1cccc(Nc2nccc(-c3cccnc3)n2)c1)c1ccncc1 | > 100
FC(F)C(F)(F)Oc1cccc(Nc2nccc(-c3ccncc3)n2)c1 | > 10
O=[N+]([O-])c1cccc(Nc2nccc(-c3ccncc3)n2)c1 | > 100
O=C(O)c1ccccc1C(=O)Nc1cccc(Nc2nccc(-c3cccnc3)n2)c1 | > 100
O=[N+]([O-])c1cccc(Nc2nccc(-c3cccnc3)n2)c1 | > 100
O=C(Nc1cccc(Nc2nccc(-c3cccnc3)n2)c1)c1cccs1 | 20
CCCCCC(=O)Nc1cccc(Nc2nccc(-c3cccnc3)n2)c1 | 0.6
COC(=O)c1cccc(Nc2nccc(-c3cccnc3)n2)c1 | > 10
CN1CCN(Cc2ccc(C(=O)Nc3cccc(Nc4nccc(-c5cccnc5)n4)c3)cc2)CC1 | 0.2
Nc1cccc(Nc2nccc(-c3ccncc3)n2)c1 | > 10

Biological target: Protein kinase C delta type (Homo sapiens, UniProt Q05655)
Assay: Inhibition of protein kinase C delta.

Protein kinase C delta type, sequence (Q05655 whole entry): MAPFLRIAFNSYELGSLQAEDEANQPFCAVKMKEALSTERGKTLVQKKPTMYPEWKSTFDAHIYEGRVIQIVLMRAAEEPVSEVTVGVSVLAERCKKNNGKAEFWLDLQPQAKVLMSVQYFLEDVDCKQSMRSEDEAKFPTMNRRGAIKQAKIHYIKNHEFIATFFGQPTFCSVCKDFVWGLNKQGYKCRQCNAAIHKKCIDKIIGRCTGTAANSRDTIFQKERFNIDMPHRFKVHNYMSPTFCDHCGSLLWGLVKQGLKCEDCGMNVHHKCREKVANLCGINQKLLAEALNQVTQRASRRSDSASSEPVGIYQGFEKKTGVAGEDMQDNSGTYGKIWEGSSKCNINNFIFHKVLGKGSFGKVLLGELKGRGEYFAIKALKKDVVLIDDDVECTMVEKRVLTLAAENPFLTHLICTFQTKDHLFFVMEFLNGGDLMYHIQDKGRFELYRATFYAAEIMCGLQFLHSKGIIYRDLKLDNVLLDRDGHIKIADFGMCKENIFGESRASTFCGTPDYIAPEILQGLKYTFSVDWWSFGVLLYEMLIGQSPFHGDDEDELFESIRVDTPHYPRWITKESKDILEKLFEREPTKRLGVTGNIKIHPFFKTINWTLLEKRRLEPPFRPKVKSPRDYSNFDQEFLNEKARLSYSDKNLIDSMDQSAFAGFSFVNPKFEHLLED

Compound | IC50 [µM]
c1cncc(-c2ccnc(Nc3cccc(-n4ccnc4)c3)n2)c1 | 21
NCCCn1ccc2c(-c3ccnc(Nc4cccc(OC(F)(F)C(F)F)c4)n3)cccc21 | 4.4
COc1ccccc1C(=O)Nc1cccc(Nc2nccc(-c3cccnc3)n2)c1 | > 500
Clc1cccc(Nc2nccc(-c3cccnc3)n2)c1 | 23
O=C(Nc1cccc(Nc2nccc(-c3cccnc3)n2)c1)c1cccnc1 | 17
FC(F)C(F)(F)Oc1cccc(Nc2nccc(-c3c[nH]c4ccccc34)n2)c1 | 1.4
O=C(Nc1cccc(Nc2nccc(-c3cccnc3)n2)c1)c1ccncc1 | 24
FC(F)C(F)(F)Oc1cccc(Nc2nccc(-c3ccncc3)n2)c1 | > 100
O=[N+]([O-])c1cccc(Nc2nccc(-c3ccncc3)n2)c1 | > 500
O=[N+]([O-])c1cccc(Nc2nccc(-c3cccnc3)n2)c1 | > 500
CCCCCC(=O)Nc1cccc(Nc2nccc(-c3cccnc3)n2)c1 | 19

Biological target: Protein kinase C alpha type (Homo sapiens, UniProt P17252)
Assay: Inhibition of protein kinase C alpha.

Compound | IC50 [µM]
c1cncc(-c2ccnc(Nc3cccc(-n4ccnc4)c3)n2)c1 | 1
NCCCn1ccc2c(-c3ccnc(Nc4cccc(OC(F)(F)C(F)F)c4)n3)cccc21 | 0.18
COc1ccccc1C(=O)Nc1cccc(Nc2nccc(-c3cccnc3)n2)c1 | 0.32
Clc1cccc(Nc2nccc(-c3cccnc3)n2)c1 | 1.6
O=C(Nc1cccc(Nc2nccc(-c3cccnc3)n2)c1)c1cccnc1 | 1.7
FC(F)C(F)(F)Oc1cccc(Nc2nccc(-c3c[nH]c4ccccc34)n2)c1 | 0.29
O=C(Nc1cccc(Nc2nccc(-c3cccnc3)n2)c1)c1ccncc1 | 1.3
FC(F)C(F)(F)Oc1cccc(Nc2nccc(-c3ccncc3)n2)c1 | 0.3
O=[N+]([O-])c1cccc(Nc2nccc(-c3ccncc3)n2)c1 | 2.6
O=[N+]([O-])c1cccc(Nc2nccc(-c3cccnc3)n2)c1 | 0.79
CCCCCC(=O)Nc1cccc(Nc2nccc(-c3cccnc3)n2)c1 | 2

Biological target: cAMP-dependent protein kinase (PKA) (Homo sapiens, UniProt P22694+P17612+P22612)
Assay: Inhibition of protein kinase A.
Assay type: protein assay, unidentified

Compound | IC50 [µM]
c1cncc(-c2ccnc(Nc3cccc(-n4ccnc4)c3)n2)c1 | > 500
O=C(Nc1cccc(Nc2nccc(-c3cccnc3)n2)c1)c1ccccn1 | > 500
NCCCn1ccc2c(-c3ccnc(Nc4cccc(OC(F)(F)C(F)F)c4)n3)cccc21 | 2
COc1ccccc1C(=O)Nc1cccc(Nc2nccc(-c3cccnc3)n2)c1 | > 500
Clc1cccc(Nc2nccc(-c3cccnc3)n2)c1 | > 500
O=C(Nc1cccc(Nc2nccc(-c3cccnc3)n2)c1)c1cccnc1 | > 500
O=C(Nc1cccc(Nc2nccc(-c3cccnc3)n2)c1)c1ccc(F)cc1 | > 500
FC(F)C(F)(F)Oc1cccc(Nc2nccc(-c3c[nH]c4ccccc34)n2)c1 | 73
O=C(Nc1cccc(Nc2nccc(-c3cccnc3)n2)c1)c1ccncc1 | > 500
FC(F)C(F)(F)Oc1cccc(Nc2nccc(-c3ccncc3)n2)c1 | > 500
O=[N+]([O-])c1cccc(Nc2nccc(-c3ccncc3)n2)c1 | > 500
O=C(O)c1ccccc1C(=O)Nc1cccc(Nc2nccc(-c3cccnc3)n2)c1 | > 500
O=[N+]([O-])c1cccc(Nc2nccc(-c3cccnc3)n2)c1 | > 500
O=C(Nc1cccc(Nc2nccc(-c3cccnc3)n2)c1)c1cccs1 | > 500
COC(=O)c1cccc(Nc2nccc(-c3cccnc3)n2)c1 | > 500
CN1CCN(Cc2ccc(C(=O)Nc3cccc(Nc4nccc(-c5cccnc5)n4)c3)cc2)CC1 | 475

Biological target: Epidermal growth factor receptor (Homo sapiens, UniProt P00533)
Sequence (P00533 whole entry): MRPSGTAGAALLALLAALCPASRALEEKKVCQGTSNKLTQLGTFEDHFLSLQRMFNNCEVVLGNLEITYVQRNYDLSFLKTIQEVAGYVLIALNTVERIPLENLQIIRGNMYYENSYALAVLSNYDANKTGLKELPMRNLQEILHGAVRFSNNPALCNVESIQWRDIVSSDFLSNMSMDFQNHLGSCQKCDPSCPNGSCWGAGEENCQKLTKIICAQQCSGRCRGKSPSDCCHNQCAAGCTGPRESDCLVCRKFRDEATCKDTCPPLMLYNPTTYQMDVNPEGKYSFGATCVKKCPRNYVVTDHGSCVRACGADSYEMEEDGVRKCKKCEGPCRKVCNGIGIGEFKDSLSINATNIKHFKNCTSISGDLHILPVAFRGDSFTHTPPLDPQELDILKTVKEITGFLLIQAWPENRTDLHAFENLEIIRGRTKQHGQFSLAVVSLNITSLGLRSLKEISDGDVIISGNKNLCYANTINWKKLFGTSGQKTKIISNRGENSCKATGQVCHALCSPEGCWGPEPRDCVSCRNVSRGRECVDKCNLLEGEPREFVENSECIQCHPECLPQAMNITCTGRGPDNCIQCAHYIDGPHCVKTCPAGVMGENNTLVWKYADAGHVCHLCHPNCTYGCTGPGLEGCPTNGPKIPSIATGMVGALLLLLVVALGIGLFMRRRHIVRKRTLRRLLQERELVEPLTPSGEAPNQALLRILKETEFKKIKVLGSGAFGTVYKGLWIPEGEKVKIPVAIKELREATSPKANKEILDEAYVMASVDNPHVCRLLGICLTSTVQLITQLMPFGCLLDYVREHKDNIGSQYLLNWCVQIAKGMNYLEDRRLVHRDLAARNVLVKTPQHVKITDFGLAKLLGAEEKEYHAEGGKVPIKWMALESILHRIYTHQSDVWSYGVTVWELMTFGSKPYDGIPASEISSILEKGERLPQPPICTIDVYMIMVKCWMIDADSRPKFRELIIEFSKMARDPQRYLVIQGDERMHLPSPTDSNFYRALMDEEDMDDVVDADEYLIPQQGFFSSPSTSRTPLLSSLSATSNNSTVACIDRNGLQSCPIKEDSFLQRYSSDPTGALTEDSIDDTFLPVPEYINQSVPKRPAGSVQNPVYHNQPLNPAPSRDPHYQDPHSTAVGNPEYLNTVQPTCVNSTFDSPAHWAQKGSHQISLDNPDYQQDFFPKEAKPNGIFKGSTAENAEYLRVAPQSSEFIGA
Description: Inhibition of the epidermal growth factor receptor.

Compound | IC50 [µM]
c1cncc(-c2ccnc(Nc3cccc(-n4ccnc4)c3)n2)c1 | > 100
NCCCn1ccc2c(-c3ccnc(Nc4cccc(OC(F)(F)C(F)F)c4)n3)cccc21 | 0.53
COc1ccccc1C(=O)Nc1cccc(Nc2nccc(-c3cccnc3)n2)c1 | 100
Clc1cccc(Nc2nccc(-c3cccnc3)n2)c1 | > 100
O=C(Nc1cccc(Nc2nccc(-c3cccnc3)n2)c1)c1cccnc1 | > 100
O=C(Nc1cccc(Nc2nccc(-c3cccnc3)n2)c1)c1ccc(F)cc1 | > 50
FC(F)C(F)(F)Oc1cccc(Nc2nccc(-c3c[nH]c4ccccc34)n2)c1 | 1.8
O=C(Nc1cccc(Nc2nccc(-c3cccnc3)n2)c1)c1ccncc1 | > 100
FC(F)C(F)(F)Oc1cccc(Nc2nccc(-c3ccncc3)n2)c1 | > 100
O=[N+]([O-])c1cccc(Nc2nccc(-c3ccncc3)n2)c1 | > 100
O=[N+]([O-])c1cccc(Nc2nccc(-c3cccnc3)n2)c1 | 100
O=C(Nc1cccc(Nc2nccc(-c3cccnc3)n2)c1)c1cccs1 | > 50
CCCCCC(=O)Nc1cccc(Nc2nccc(-c3cccnc3)n2)c1 | > 100
CN1CCN(Cc2ccc(C(=O)Nc3cccc(Nc4nccc(-c5cccnc5)n4)c3)cc2)CC1 | > 100

Biological target: Proto-oncogene tyrosine-protein kinase Src (Homo sapiens, UniProt P12931)
Sequence (P12931 2-536 limits assumed): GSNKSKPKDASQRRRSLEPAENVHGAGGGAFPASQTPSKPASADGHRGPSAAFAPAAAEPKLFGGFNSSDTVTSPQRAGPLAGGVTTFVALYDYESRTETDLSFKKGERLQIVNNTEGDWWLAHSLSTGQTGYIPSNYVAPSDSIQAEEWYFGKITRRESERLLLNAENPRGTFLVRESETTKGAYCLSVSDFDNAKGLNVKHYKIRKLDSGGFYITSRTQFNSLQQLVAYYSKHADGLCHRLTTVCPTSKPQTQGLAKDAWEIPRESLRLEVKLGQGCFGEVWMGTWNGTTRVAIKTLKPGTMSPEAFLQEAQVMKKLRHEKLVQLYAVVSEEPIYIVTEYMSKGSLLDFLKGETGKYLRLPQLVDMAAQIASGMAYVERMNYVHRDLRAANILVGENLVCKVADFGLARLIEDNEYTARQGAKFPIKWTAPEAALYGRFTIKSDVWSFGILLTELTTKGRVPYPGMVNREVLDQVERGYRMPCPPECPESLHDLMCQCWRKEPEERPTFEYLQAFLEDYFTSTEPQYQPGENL
Description: Inhibition of c-Src-tyrosine kinase.

Compound | IC50 [µM]
c1cncc(-c2ccnc(Nc3cccc(-n4ccnc4)c3)n2)c1 | 1.6
O=C(Nc1cccc(Nc2nccc(-c3cccnc3)n2)c1)c1ccccn1 | 90
NCCCn1ccc2c(-c3ccnc(Nc4cccc(OC(F)(F)C(F)F)c4)n3)cccc21 | 0.5
COc1ccccc1C(=O)Nc1cccc(Nc2nccc(-c3cccnc3)n2)c1 | > 100
Clc1cccc(Nc2nccc(-c3cccnc3)n2)c1 | > 100
O=C(Nc1cccc(Nc2nccc(-c3cccnc3)n2)c1)c1cccnc1 | 9
O=C(Nc1cccc(Nc2nccc(-c3cccnc3)n2)c1)c1ccc(F)cc1 | > 100
FC(F)C(F)(F)Oc1cccc(Nc2nccc(-c3c[nH]c4ccccc34)n2)c1 | 2.2
O=C(Nc1cccc(Nc2nccc(-c3cccnc3)n2)c1)c1ccncc1 | 78
FC(F)C(F)(F)Oc1cccc(Nc2nccc(-c3ccncc3)n2)c1 | > 100
O=[N+]([O-])c1cccc(Nc2nccc(-c3ccncc3)n2)c1 | > 100
O=C(O)c1ccccc1C(=O)Nc1cccc(Nc2nccc(-c3cccnc3)n2)c1 | 44
O=[N+]([O-])c1cccc(Nc2nccc(-c3cccnc3)n2)c1 | 93
O=C(Nc1cccc(Nc2nccc(-c3cccnc3)n2)c1)c1cccs1 | 3
CCCCCC(=O)Nc1cccc(Nc2nccc(-c3cccnc3)n2)c1 | 3.7
COC(=O)c1cccc(Nc2nccc(-c3cccnc3)n2)c1 | 90
CN1CCN(Cc2ccc(C(=O)Nc3cccc(Nc4nccc(-c5cccnc5)n4)c3)cc2)CC1 | 7.8
Nc1cccc(Nc2nccc(-c3ccncc3)n2)c1 | 16

Biological target: Tyrosine-protein kinase ABL1 (Homo sapiens, UniProt P00519)
Sequence (P00519 whole entry, looked up): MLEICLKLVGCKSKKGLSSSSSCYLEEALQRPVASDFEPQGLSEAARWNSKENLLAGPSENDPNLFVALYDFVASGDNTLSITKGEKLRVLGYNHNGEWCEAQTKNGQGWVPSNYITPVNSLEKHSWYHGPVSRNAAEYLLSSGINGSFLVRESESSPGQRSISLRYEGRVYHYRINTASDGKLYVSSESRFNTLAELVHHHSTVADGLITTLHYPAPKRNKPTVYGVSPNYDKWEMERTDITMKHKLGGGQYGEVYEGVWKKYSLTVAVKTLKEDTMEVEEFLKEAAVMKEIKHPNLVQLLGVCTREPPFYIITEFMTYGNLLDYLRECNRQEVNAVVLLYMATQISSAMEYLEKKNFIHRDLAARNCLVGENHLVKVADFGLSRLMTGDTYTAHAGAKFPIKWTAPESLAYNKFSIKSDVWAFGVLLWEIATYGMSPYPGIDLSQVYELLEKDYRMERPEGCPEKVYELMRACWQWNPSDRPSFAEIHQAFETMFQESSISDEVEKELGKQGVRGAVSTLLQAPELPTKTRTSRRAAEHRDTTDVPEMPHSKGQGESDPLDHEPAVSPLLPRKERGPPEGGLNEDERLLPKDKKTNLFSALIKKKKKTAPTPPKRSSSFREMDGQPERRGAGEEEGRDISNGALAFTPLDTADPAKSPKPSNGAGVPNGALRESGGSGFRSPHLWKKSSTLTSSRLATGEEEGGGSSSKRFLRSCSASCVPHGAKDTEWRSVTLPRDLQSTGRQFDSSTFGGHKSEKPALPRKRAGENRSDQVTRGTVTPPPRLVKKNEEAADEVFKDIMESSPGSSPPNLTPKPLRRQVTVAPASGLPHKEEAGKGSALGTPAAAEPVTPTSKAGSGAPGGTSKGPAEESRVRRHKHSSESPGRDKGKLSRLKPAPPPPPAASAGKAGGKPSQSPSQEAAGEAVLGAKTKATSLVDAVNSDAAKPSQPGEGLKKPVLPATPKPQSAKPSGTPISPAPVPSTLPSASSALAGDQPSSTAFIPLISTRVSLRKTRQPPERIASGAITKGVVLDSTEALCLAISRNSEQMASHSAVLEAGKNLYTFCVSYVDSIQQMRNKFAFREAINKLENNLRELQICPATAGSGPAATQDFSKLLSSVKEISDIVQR
Description: Inhibition of v-Abl tyrosine kinase.

Compound | IC50 [µM]
c1cncc(-c2ccnc(Nc3cccc(-n4ccnc4)c3)n2)c1 | 3.3
O=C(Nc1cccc(Nc2nccc(-c3cccnc3)n2)c1)c1ccccn1 | 3.8
NCCCn1ccc2c(-c3ccnc(Nc4cccc(OC(F)(F)C(F)F)c4)n3)cccc21 | 0.35
COc1ccccc1C(=O)Nc1cccc(Nc2nccc(-c3cccnc3)n2)c1 | 1.9
Clc1cccc(Nc2nccc(-c3cccnc3)n2)c1 | 1.5
O=C(Nc1cccc(Nc2nccc(-c3cccnc3)n2)c1)c1cccnc1 | 0.15
O=C(Nc1cccc(Nc2nccc(-c3cccnc3)n2)c1)c1ccc(F)cc1 | 0.2
FC(F)C(F)(F)Oc1cccc(Nc2nccc(-c3c[nH]c4ccccc34)n2)c1 | 0.37
O=C(Nc1cccc(Nc2nccc(-c3cccnc3)n2)c1)c1ccncc1 | 0.5
FC(F)C(F)(F)Oc1cccc(Nc2nccc(-c3ccncc3)n2)c1 | > 100
O=[N+]([O-])c1cccc(Nc2nccc(-c3ccncc3)n2)c1 | 61
O=C(O)c1ccccc1C(=O)Nc1cccc(Nc2nccc(-c3cccnc3)n2)c1 | 2
O=[N+]([O-])c1cccc(Nc2nccc(-c3cccnc3)n2)c1 | 34
O=C(Nc1cccc(Nc2nccc(-c3cccnc3)n2)c1)c1cccs1 | 0.3
CCCCCC(=O)Nc1cccc(Nc2nccc(-c3cccnc3)n2)c1 | 0.2
COC(=O)c1cccc(Nc2nccc(-c3cccnc3)n2)c1 | 5.1
CN1CCN(Cc2ccc(C(=O)Nc3cccc(Nc4nccc(-c5cccnc5)n4)c3)cc2)CC1 | 0.1
Nc1cccc(Nc2nccc(-c3ccncc3)n2)c1 | 0.6
